Series [1] can be described thus: Dissolution profile of ezetimibe preparations in water (amount dissolved over time). The series is classed as physicochemical. An excerpt:
The results are shown in Tables 1 to 3, and FIGS. 1 to 3.

A short description of series [2]: Dissolution profile of atovaquone preparations in 10 mM triethylamine/HCl (pH=10) buffer. It counts as physicochemical.
The conditions of series [3]: cited from earlier work.

For `O=C1[C@H](CC[C@H](O)c2ccc(F)cc2)[C@@H](c2ccc(O)cc2)N1c1ccc(F)cc1` [Amorphous ezetimibe, 1-(4-fluorophenyl)-3-[3-(4-fluorophenyl)-3-hydroxy-propyl]-4-(4-hydroxyphenyl)-azetidin-2-one], the Amount dissolved came out at 0.19 µg/mL in series [1] (Ezetimibe and Aerosil 200, time 10 min); 0.20 µg/mL in series [1] (Ezetimibe and Aerosil 200, time 20 min); 0.27 µg/mL in series [1] (Ezetimibe and Aerosil 200, time 45 min); 0.41 µg/mL in series [1] (Ezetimibe and Aerosil 200, time 100 min).
Consider `O=C1C(=O)c2ccccc2C(O)=C1C1CCC(c2ccc(Cl)cc2)CC1` (centres unmarked) [Crystalline atovaquone, 3-[4-(4-chlorophenyl)cyclohexyl]-4-hydroxy-naphthalene-1,2-dione], for which the Amount dissolved in series [2] (Atovaquone and Aerosil 200, time 10 min) is 0.16 µg/mL; in series [2] (Atovaquone and Aerosil 200, time 20 min) it was 0.7 µg/mL; in series [2] (Atovaquone and Aerosil 200, time 60 min) it was 4.1 µg/mL; in series [2] (Atovaquone and Aerosil 200, time 100 min), 6.2 µg/mL.
For `O=C1[C@H](CC[C@H](O)c2ccc(F)cc2)[C@@H](c2ccc(O)cc2)N1c1ccc(F)cc1` [Crystalline ezetimibe, 1-(4-fluorophenyl)-3-[3-(4-fluorophenyl)-3-hydroxy-propyl]-4-(4-hydroxyphenyl)-azetidin-2-one], the Amount dissolved in series [1] (Ezetimibe and Prosolv, time 10 min) was 0.08 µg/mL; in series [1] (Ezetimibe and Prosolv, time 20 min) it was 0.13 µg/mL; in series [1] (Ezetimibe and Prosolv, time 60 min) it was 0.12 µg/mL; in series [1] (Ezetimibe and Prosolv, time 100 min) it was 0.25 µg/mL.
Consider `O=C1C(=O)c2ccccc2C(O)=C1C1CCC(c2ccc(Cl)cc2)CC1` (centres unmarked) [atovaquone, 3-[4-(4-chlorophenyl)cyclohexyl]-4-hydroxy-naphthalene-1,2-dione], for which the “log P/hydrophobicity value” in series [3] is given as 5.251.
`O=C1[C@H](CC[C@H](O)c2ccc(F)cc2)[C@@H](c2ccc(O)cc2)N1c1ccc(F)cc1` [ezetimibe, 1-(4-fluorophenyl)-3-[3-(4-fluorophenyl)-3-hydroxy-propyl]-4-(4-hydroxyphenyl)-azetidin-2-one]: in series [3], the “log P/hydrophobicity value” is 4.584.

The record behind these values is patent US20100305087A1, “ACTIVE PHARMACEUTICAL INGREDIENT ON A SOLID SUPPORT, AMORPHOUS AND WITH AN IMPROVED SOLUBILITY” (Lek Pharmaceuticals d.d., priority 2007, published 2010).
